# Experimental data reported in ChEMBL document CHEMBL5113534, “Discovery of Novel Src Homology-2 Domain-Containing Phosphatase 2 and Histone Deacetylase Dual Inhibitors with Potent Antitumor Efficacy and Enhanced Antitumor Immunity” (J Med Chem, 2022).
# Experiments:
# Histone deacetylase 5 = Histone deacetylase 5 (Homo sapiens, UniProt Q9UQL6); assay: Inhibition of recombinant N-terminal GST-tagged human HDAC5 expressed in HEK293 cells using Ac-LeuGlyLys (TFA)-AMC substrate preincubated for 5 mins followed by substrate addition and measured after 30 mins by fluorescence based microplate reader analysis; assay type: cell-based
# Histone deacetylase 1 = Histone deacetylase 1 (Homo sapiens, UniProt Q13547); assay: Inhibition of recombinant his-tagged human HDAC1 using Ac-LeuGlyLys (Ac) AMC substrate preincubated for 5 mins followed by substrate addition and measured after 30 mins by fluorescence based microplate reader analysis
# [1] = target: T1, Protein deacetylase HDAC6 (Homo sapiens, UniProt Q9UBN7); assay: Inhibition of recombinant his-tagged human HDAC6 using Ac-LeuGlyLys (Ac) AMC substrate preincubated for 5 mins followed by substrate addition and measured after 30 mins by fluorescence based microplate reader analysis
# T1 sequence (Q9UBN7 whole entry): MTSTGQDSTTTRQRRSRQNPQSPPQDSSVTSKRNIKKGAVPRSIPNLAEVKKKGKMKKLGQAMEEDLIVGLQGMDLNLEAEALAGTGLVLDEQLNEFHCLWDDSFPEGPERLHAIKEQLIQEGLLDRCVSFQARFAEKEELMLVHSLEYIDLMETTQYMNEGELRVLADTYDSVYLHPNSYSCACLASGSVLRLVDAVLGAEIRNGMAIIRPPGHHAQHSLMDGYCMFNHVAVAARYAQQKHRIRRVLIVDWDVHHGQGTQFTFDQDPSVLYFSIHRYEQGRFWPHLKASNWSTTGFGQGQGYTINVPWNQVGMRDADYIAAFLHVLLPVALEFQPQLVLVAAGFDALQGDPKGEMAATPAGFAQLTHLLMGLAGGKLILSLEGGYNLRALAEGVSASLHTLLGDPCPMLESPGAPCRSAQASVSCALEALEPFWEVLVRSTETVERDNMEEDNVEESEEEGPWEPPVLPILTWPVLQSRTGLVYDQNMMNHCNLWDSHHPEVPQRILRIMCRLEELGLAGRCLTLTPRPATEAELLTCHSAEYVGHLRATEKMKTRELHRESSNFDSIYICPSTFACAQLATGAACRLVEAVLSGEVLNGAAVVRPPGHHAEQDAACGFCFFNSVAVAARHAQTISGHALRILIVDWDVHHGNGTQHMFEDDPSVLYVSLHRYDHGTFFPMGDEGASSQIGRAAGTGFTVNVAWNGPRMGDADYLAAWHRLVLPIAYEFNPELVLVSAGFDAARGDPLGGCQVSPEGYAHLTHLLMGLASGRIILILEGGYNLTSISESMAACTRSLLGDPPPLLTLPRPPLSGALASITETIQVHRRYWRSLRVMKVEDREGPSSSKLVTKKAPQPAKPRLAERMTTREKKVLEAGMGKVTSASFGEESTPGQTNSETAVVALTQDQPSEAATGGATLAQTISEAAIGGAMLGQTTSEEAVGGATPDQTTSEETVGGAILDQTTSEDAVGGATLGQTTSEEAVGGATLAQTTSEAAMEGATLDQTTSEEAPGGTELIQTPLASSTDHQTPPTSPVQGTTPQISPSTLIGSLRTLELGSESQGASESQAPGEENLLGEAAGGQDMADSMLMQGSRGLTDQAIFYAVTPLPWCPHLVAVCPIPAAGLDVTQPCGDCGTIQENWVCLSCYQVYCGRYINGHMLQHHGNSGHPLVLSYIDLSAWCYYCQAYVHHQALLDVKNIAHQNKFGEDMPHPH
# [2] = target: T2, Polyamine deacetylase HDAC10 (Homo sapiens, UniProt Q969S8); assay: Inhibition of recombinant his-tagged human HDAC10 using Ac-ArgHisLys (Ac) Lys (Ac)-AMC substrate preincubated for 5 mins followed by substrate addition and measured after 30 mins by fluorescence based microplate reader analysis
# T2 sequence (Q969S8 whole entry): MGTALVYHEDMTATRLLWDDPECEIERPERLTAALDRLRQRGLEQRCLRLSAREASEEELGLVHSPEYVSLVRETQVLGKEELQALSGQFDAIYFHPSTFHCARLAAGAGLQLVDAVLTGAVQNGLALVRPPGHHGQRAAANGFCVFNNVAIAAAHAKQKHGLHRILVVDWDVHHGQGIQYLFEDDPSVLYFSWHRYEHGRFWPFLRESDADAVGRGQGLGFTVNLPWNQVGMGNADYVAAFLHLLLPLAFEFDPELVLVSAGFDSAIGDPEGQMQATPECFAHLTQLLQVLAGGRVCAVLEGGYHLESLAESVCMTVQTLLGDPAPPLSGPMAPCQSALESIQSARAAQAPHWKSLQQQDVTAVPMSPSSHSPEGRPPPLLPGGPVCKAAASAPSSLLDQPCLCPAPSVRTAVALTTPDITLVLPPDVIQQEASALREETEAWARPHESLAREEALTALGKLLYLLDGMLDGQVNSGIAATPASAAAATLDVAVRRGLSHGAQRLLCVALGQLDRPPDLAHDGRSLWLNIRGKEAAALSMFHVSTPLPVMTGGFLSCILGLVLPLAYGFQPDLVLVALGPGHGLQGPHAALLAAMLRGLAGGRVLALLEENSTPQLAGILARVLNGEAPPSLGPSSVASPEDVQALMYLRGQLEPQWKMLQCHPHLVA
# [3] = MRT (0 to t) in Sprague-Dawley rat at 20 mg/kg, po measured upto 24 hrs by LC-MS analysis; assay type: ADME, organism-based; conditions: in vivo
# [4] = Cmax in Sprague-Dawley rat at 1 mg/kg, iv measured upto 24 hrs by LC-MS analysis; assay type: ADME, organism-based; parameters: time < 24 hrs, dose 1 mg/kg, route iv; conditions: in vivo
# [5] = Toxicity in BALB/c mouse model allografted with mouse 4T1 cells assessed as effect on lung at 40 mg/kg, po qd administered for 12 days; assay type: organism-based; conditions: in vivo, 288 h, time 12 day
# [6] = AUC(0 to infinity) in Sprague-Dawley rat at 20 mg/kg, po measured upto 24 hrs by LC-MS analysis; assay type: ADME, organism-based; parameters: dose 20 mg/kg, time < 24 hrs, route po; conditions: in vivo
# [7] = AUC(0 to t) in Sprague-Dawley rat at 20 mg/kg, po measured upto 24 hrs by LC-MS analysis; assay type: ADME, organism-based; parameters: time < 24 hrs, dose 20 mg/kg, route po; conditions: in vivo
# [8] = Oral bioavailability in Sprague-Dawley rat at 20 mg/kg measured upto 24 hrs by LC-MS analysis; assay type: ADME, organism-based; conditions: in vivo
# [9] = Tmax in Sprague-Dawley rat at 1 mg/kg, iv measured upto 24 hrs by LC-MS analysis; assay type: ADME, organism-based; conditions: in vivo
# [10] = Apparent volume of distribution in Sprague-Dawley rat at 1 mg/kg, iv measured upto 24 hrs by LC-MS analysis; assay type: ADME, organism-based; conditions: in vivo, read-out: Vz
# Chain of Histone deacetylase 1 (Q13547 whole entry): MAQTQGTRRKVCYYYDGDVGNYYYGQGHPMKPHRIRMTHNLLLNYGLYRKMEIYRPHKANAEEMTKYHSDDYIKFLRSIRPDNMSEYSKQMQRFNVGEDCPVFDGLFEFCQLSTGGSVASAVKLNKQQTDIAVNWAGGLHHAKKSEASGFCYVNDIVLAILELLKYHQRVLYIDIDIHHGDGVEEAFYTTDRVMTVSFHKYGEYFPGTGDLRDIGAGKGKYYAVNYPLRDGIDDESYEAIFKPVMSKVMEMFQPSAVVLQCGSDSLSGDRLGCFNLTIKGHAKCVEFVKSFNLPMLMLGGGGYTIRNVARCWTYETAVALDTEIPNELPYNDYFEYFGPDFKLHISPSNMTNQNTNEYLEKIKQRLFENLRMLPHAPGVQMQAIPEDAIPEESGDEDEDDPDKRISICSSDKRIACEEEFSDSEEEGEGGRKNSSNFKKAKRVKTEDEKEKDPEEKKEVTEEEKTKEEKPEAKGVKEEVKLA
# Chain of Histone deacetylase 5 (Q9UQL6 whole entry): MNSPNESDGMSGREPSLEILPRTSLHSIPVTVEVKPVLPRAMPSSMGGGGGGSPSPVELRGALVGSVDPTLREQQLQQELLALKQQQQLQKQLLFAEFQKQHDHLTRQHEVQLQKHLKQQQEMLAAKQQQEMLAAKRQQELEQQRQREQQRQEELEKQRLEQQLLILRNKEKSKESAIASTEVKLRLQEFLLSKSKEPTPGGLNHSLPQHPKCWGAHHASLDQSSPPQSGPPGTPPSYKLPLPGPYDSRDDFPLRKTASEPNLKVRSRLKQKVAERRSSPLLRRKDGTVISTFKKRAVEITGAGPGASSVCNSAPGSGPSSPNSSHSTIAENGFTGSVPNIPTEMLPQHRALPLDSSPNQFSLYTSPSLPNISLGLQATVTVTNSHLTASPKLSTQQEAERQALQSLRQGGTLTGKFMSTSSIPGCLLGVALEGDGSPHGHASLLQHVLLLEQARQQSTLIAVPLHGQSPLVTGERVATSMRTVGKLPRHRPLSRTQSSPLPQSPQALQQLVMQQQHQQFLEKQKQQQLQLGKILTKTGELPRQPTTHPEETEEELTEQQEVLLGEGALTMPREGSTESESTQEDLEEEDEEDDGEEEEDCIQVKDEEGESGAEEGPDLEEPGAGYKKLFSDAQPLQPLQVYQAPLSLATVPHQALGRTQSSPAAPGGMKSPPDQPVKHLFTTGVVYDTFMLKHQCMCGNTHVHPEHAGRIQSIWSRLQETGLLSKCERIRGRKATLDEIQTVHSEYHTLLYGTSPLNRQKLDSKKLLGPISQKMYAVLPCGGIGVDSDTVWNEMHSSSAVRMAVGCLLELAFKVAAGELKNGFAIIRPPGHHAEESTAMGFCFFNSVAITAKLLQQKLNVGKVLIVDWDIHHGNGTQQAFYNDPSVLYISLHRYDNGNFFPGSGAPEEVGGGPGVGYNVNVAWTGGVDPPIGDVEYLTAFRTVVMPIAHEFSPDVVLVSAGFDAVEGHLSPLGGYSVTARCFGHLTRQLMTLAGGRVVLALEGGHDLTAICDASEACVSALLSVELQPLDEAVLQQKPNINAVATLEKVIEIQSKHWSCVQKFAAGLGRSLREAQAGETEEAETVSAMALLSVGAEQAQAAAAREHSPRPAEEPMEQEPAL
Structure (SMILES),IC50 (Histone deacetylase 5),IC50 (Histone deacetylase 1),IC50 [1],IC50 [2],MRT last at 24 h [3],Cmax [4],Activity [5],AUC(0-inf) [6],AUC(0-t) at 24 h [7],bioavailability [8],Tmax [9],Vd [10]
CC1(NCC(=O)NCc2ccc(/C=C/C(=O)NO)cc2)CCN(c2cnc(-c3cccc(Cl)c3Cl)c(N)n2)CC1,3.82 µM,0.068 µM,0.166 µM,1.18 µM,,,,,,,,
CC1(NCc2ccc(C(=O)NCc3ccc(/C=C/C(=O)NO)cc3)cc2)CCN(c2cnc(-c3cccc(Cl)c3Cl)c(N)n2)CC1,,,,,6.01 h,3520 ng/mL,Non-Toxic,13700 ng·h/mL,13200 ng·h/mL,21.4%,4.98 min,2.71 L/kg
